Assay results published in article PMC4319893, “Targeting Protein-Protein Interactions with Trimeric Ligands: High Affinity Inhibitors of the MAGUK Protein Family” (PLoS ONE, 2015).

Assays:
PSD-95 PDZ1-2-3 = biological target: T1, PSD-95 PDZ1-2-3 (Homo sapiens, UniProt P78352); experiment: Fluorescence polarization (FP) binding assay, PSD-95 PDZ1-2-3
T1 construct: 7xHis; made in house; host or cells: E. coli BL21(DE3)pLysS
Experimental: (§1) The monomeric FP assay was conducted as previously described except that the proteins were diluted in 50 mM TRIS, 100 mM NaCl, 1 mM ethylenediaminetetraacetate (EDTA), 1 mM DTT.[34] The monomeric probe was only used when monomeric binding to PSD95 PDZ1-2 and PSD95 PDZ1-2-3 was evaluated, whereas 18 was used as probe for evaluating the binding of the dimeric and trimeric ligands. […] In all of the experiments a blank (buffer) and a reference sample (0.5 nM probe in buffer) were used. A total of 30 μl was pipetted into the wells of a 384 flat black bottom well plate. The FP was measured on a Tecan Safire 2 microplate reader (Tecan Group LTD., Männedorf, Germany). The absorption/emission wavelengths were set to 635/670 nm, corresponding to the Cy5 spectra. The obtained IC50 values were converted to K i values using the equations described by Nikolovska-Coleska et al.[35] […] Consequently, the Ki-value will become negative when the difference between the IC50-value and the Kd is too great.[35, 36]

FL PSD-95 (I100W) = biological target: T2, FL PSD-95 (I100W) (Homo sapiens, UniProt P78352, I100W); experiment: Stopped-flow spectrometry binding kinetics, FL PSD-95 I100W; conditions: 50 mM potassium phosphate pH 7.5, 10°C
T2 construct: PSD-95 FL: 61-end; made in house; host or cells: E. coli (pET32m3C vector; QuickChange mutagenesis)
Experimental: (§2) Kinetic experiments using stopped-flow were carried out under the conditions used previously,[37, 38] namely in 50 mM potassium phosphate, pH 7.5 at 10°C. The change in fluorescence upon binding was monitored with a 330 nm band-pass filter following excitation at 280 nm. […] Regarding the fluorophores and the observed changes in fluorescence, several events contribute to the observed signal. […] This could be either through FRET or by absorbing excitation light. Both fluorophores are also themselves excited at 280 nm (less) and 330 nm (more) and their intrinsic fluorescence may change on binding to the proteins.
(§3) This observed rate constant might be the average of the two k obs values observed upon excitation at 280 nm/emission at 330 nm.

FL PSD-95 (I195W) = biological target: T3, FL PSD-95 (I195W) (Homo sapiens, UniProt P78352, I195W); experiment: Stopped-flow spectrometry binding kinetics, FL PSD-95 I195W; conditions: 50 mM potassium phosphate pH 7.5, 10°C
T3 construct: PSD-95 FL: 61-end; made in house; host or cells: E. coli (pET32m3C vector; QuickChange mutagenesis)
Experimental: as §2, §3

FL PSD-95 wild-type = biological target: T4, FL PSD-95 wild-type (Homo sapiens, UniProt P78352); experiment: Stopped-flow spectrometry binding kinetics, FL PSD-95 wild-type; conditions: 50 mM potassium phosphate pH 7.5, 10°C
T4 construct: PSD-95 FL: 61-end; made in house; host or cells: E. coli (pET32m3C vector; construct donated by M. Zhang)
Experimental: as §2, §3

PSD-95 PDZ1-2 = PSD-95 PDZ1-2 (Homo sapiens, UniProt P78352); conditions: FP
Experimental: as §1

single PDZ3 domain = tested on: single PDZ3 domain; set-up: method as in PMID 21653701; conditions: observed previously; cited from earlier work

Substance	fold lower affinity compared to trimeric ligand 17, PDZ1-2-3 (PSD-95 PDZ1-2-3) [fold]	kon app, PSD-95 FL I100W (FL PSD-95 (I100W)) [M⁻¹ s⁻¹]	kon app, PSD-95 FL I195W (FL PSD-95 (I195W)) [M⁻¹ s⁻¹]	kon app, PSD-95 wild-type (FL PSD-95 wild-type) [M⁻¹ s⁻¹]	fold lower affinity compared to trimeric ligand 17, PDZ1-2 (PSD-95 PDZ1-2) [fold]	observed rate constant dansyl-1/PDZ3 (single PDZ3 domain) [s⁻¹]
YKQTSV [Compound 1]	> 1000	6.3e+06 ± 190000	6.3e+06 ± 130000	6e+06 ± 100000	> 1000	–
dansyl-1: N-terminally dansylated CRIPT hexapeptide YKQTSV	–	–	–	–	–	1.6
